The values below come from PubChem BioAssay AID2423 (Broad Institute, 2010).

Usually EC50 stands for the concentration at which the effect is half-maximal.

Inconclusive results are not listed. The source made the active and inactive calls. The rule behind the calls is not given here. Some results are limits rather than exact numbers.

This assay has as its system C. albicans CaCi-8 + fluconazole, Alamar Blue growth, 48 h. Put plainly: resistant C. albicans growth inhibition with fluconazole, dose response, CaCi-8 strain, Alamar Blue fluorescence (AID 2423). (In general: Resazurin is reduced to fluorescent resorufin, in cell work by metabolically active cells.)
In the case of `CC(=S)/C=C1\Sc2ccccc2N1C`, the EC50 was 5570 nM.

For the compound `O=C(c1cc(-c2ccccc2)n[nH]1)N1CCc2c([nH]c3ccccc23)C1c1ccccn1` (stereo not given), the EC50 was 692 nM.

`O=C1CN2C(=Nc3ccc(Cl)cc3C2c2ccccc2)CN1` (stereo not given): the EC50 is 3300 nM. The figure for `O=C(COc1ccc([N+](=O)[O-])cc1)NNC(=S)NC(=O)c1ccc(Br)cc1` is 2540 nM; for `Oc1ccc(N=Nc2ccc3c(c2)OCCO3)c2cccnc12` it is 804 nM; for `O=C(CN1C(=O)COc2ccccc21)NCCCN1CCc2ccccc2C1` it is > 15000 nM (inactive). For `COc1ccc(-n2nc(C(=O)NCC(=O)NCCC3=CCCCC3)c3ccccc3c2=O)c(OC)c1` the value was 232 nM; for `CCOC(=O)c1ccc(NC(=O)c2ccc(CO)c(C(=O)NC3CCN(C(=O)OCC)CC3)c2)cc1`, > 16000 nM (inactive).

As for `Cc1ccc(C)c(NC(=S)NNC(=O)c2csc3c2CCC(C)C3)c1` (stereo not given), the concentration giving a half-maximal response (EC50) was 1150 nM.

On to `O=C(NC(=S)Nc1ccccc1O)c1ccc(Cl)cc1Cl`, for which the EC50 was 624 nM.

Take `Cc1ccc2nsnc2c1NC(=O)COc1ccccc1F`: the EC50 is > 15000 nM (inactive). For `O=C(N/N=C/c1ccccc1O)c1cccc(C(F)(F)F)c1` the value was 1840 nM. The figure for `COCCN(C(=O)CSc1nnc(-c2cccc(C)c2)n1C)c1c(N)n(Cc2ccccc2)c(=O)[nH]c1=O` is > 16000 nM (inactive). Regarding `CCc1ccc2c(c1)/C(=C/C(=O)c1cccs1)C(=O)N2`, the EC50 was 2380 nM. For `CC(=O)c1cnc2cc(-c3cccc(Br)c3)nn2c1C` the value was > 15000 nM (inactive). For `O=C(Nc1cccc(NC(=O)c2ccccc2Cl)c1)c1ccc([N+](=O)[O-])o1` the value was 716 nM; for `Oc1ccc(/C=N/n2c(COc3ccccc3)n[nH]c2=S)cc1O`, 16300 nM. The figure for `O=C(N/N=C/c1c(O)ccc2ccccc12)c1cccc(C(F)(F)F)c1` is 242 nM; for `COc1cccc(/C=N/NC(=O)c2[nH]nc3c2CCc2ccccc2-3)c1O` it is 857 nM; for `CNC(=O)c1ccc2c(c1)nnn2C` it is > 15000 nM (inactive). On to `Cc1cc(OCC(=O)NNC(=S)NC(=O)c2cccs2)ccc1Cl`, for which the EC50 was 1660 nM. For `CC(=O)c1c(C)[nH]c(C(=O)Nc2ccc(C)c(C)c2)c1C` the value was 3450 nM. Take `CCc1cc(C(=O)NNC(=S)Nc2cc(C)ccc2C)cs1`: the EC50 is 422 nM.

`CC(=O)NC(c1ccccc1)c1cc(Cl)c2cccnc2c1O` (stereo not given): the 50% effective concentration (EC50) was 764 nM.

`Cc1nnc(NC(=O)c2c(-c3ccccc3Cl)noc2C)s1`: the EC50 is 3080 nM. The figure for `O=C(N/N=C\c1c(O)ccc2ccccc12)c1cncc(Br)c1` is 689 nM; for `COc1cccc(C(NC(C)=O)c2ccc3cccnc3c2O)c1` (stereo not given) it is 1730 nM. The figure for `O=C(NCc1ccco1)c1ccccc1NS(=O)(=O)c1ccc(Br)s1` is > 16000 nM (inactive). For `CCn1c(SCC(=O)c2ccc(O)c(O)c2)nnc1-c1ccccc1OC` the value was > 16000 nM (inactive); for `COc1cccc(-n2nnnc2S(C)(=O)=O)c1`, > 15000 nM (inactive).

Consider `COc1cccc(-c2nc(NC(C)C)c3ccccc3n2)c1O`, for which the EC50 is 3200 nM.

Regarding `CCCC(=O)NC(c1ccc(C(C)C)cc1)c1ccc2cccnc2c1O` (stereo not given), the EC50 was 659 nM. Regarding `CC(C)N1CCc2c(sc(NC(=O)c3nc4ccccc4s3)c2C(N)=O)C1`, the EC50 was 239 nM. For `COc1cccc(C(=O)Nc2nnc(-c3ccc(F)cc3)o2)c1` the value was 1690 nM; for `O=c1[nH]c(Nc2ccc3c(c2)OCCO3)nnc1Cc1ccccc1`, > 16000 nM (inactive). For `O=[N+]([O-])c1cc(Br)c(O)c(/C=N/Nc2nnnn2-c2cccc3ccccc23)c1`, the EC50 is > 15000 nM (inactive). Regarding `CCOC(=O)c1nc(NNC(=O)c2ccc([N+](=O)[O-])cc2)sc1C`, the EC50 is 981 nM. For the compound `Cc1ccc(C(=O)Cn2cccn2)cc1`, the EC50 is 12700 nM. For `O=C(/C=C/c1ccccc1)NC(=S)Nc1ccc(N2CCOCC2)c(Cl)c1` the value was > 16000 nM (inactive); for `O=C(NCc1cc([N+](=O)[O-])ccc1O)c1cccnc1Sc1ccccc1Cl`, 148 nM; for `Cc1ccc2c(c1)sc(-c1ccc(N(C)C)cc1)[n+]2C`, 193 nM. For `O=C(NNC(=O)c1cc2ccccc2cc1O)Nc1ccccc1F`, the EC50 is > 16000 nM (inactive). The figure for `C(=C\c1ccccc1)/C=N/Nc1nc(N2CCCCC2)nc(N2CCCCC2)n1` is > 15000 nM (inactive); for `CCC(=O)NC(c1cccs1)c1cc(Cl)c2cccnc2c1O` (stereo not given) it is 372 nM. Consider `O=C(c1ccc2c(c1)OCO2)N1CCC2(CC1)Oc1ccc(F)cc1C(=O)C21CC(c2cccnc2)=NO1` (stereo not given), for which the EC50 is 402 nM. The figure for `Cc1ccc(NC2=CC(=O)C(=O)c3ccccc32)cc1` is 451 nM; for `CCCc1cc(C(=O)Nc2sc3c(c2C#N)CCC3)no1` it is > 15000 nM (inactive); for `Cc1ccc2c(c1)c(/C=C/c1cc[n+](C)cc1)c(C)n2C` it is > 16000 nM (inactive). The figure for `COc1cccc2sc(Nc3nnc(-c4ccc(F)cc4)o3)nc12` is 1240 nM; for `CC(C)=CCc1cc2c(=O)c3c(O)c4c(cc3oc2c(O)c1O)OC(C)C4(C)C` (stereo not given) it is 6360 nM; for `COc1cc(C2C(C#N)=C(N)N(c3ccc(F)cc3)C3=C2S(=O)(=O)CC3)ccc1O` (stereo not given) it is > 16000 nM (inactive). The figure for `COc1ccc(-c2nc(CN3CCN(c4cc(C)nc(C)c4)CC3)c(C)o2)c2ccccc12` is 2490 nM.

As to `O=C(COc1ccc(Cl)cc1Cl)N1CCCN(C(=O)COc2ccc(Cl)cc2Cl)CC1`, the EC50 is 1480 nM. The figure for `S=c1[nH]nc(-c2cccs2)n1/N=C/c1cccs1` is 1080 nM.

As to `Cc1ccc(NC(=O)c2ccccc2NS(=O)(=O)c2ccc(Cl)s2)cc1`, the EC50 is 1160 nM.

In the case of `COc1ccccc1NS(=O)(=O)c1cc(NC(=O)CCC(=O)c2cccs2)ccc1Cl`, the EC50 is > 15000 nM (inactive).

In the case of `COc1ccc(-c2cc(N)n(S(=O)(=O)c3c(F)c(F)c(F)c(F)c3F)n2)cc1OC`, the EC50 is > 16000 nM (inactive). The figure for `Cc1c(CCOC(=O)C23CC4(C)CC(C)(CC(C)(C4)C2)C3)sc[n+]1CC(=O)c1ccccc1` is > 15000 nM (inactive); for `CC(=O)Nc1cccc(-c2csc(Nc3ccc(C)cn3)n2)c1` it is 2260 nM. The figure for `O=c1c2ccccc2nc(/C=C/c2ccc([N+](=O)[O-])o2)n1CCCO` is 153 nM; for `COc1cccc(C(=O)NNC(=O)c2ccccc2Br)c1` it is > 15000 nM (inactive). The figure for `c1ccc(CC2CCN(c3ncnc4sccc34)CC2)cc1` is 1530 nM; for `CCn1nc(/C=C/c2ccccc2)nc2c(=O)n(C)c(=O)nc1-2` it is 323 nM; for `Cc1ccc(-n2c(C)cc(/C([O-])=C(/C(=S)Nc3ccc(F)c(Cl)c3)[n+]3ccccc3)c2C)cc1` it is > 16000 nM (inactive). On to `Cc1cccc(C(=O)O/N=C/c2c(N3CCOCC3)n(C)c3ccccc23)c1`, for which the EC50 is 799 nM. The figure for `CC(C)CCNCC(=O)NC(c1ccccc1)c1ccccc1` is > 16000 nM (inactive); for `O=[N+]([O-])c1cccc(C=Nc2cccc3ccccc23)c1O` it is 12200 nM; for `CCc1nnc(NC(=O)CSc2ncc(-c3ccccc3)n2C)s1` it is 1640 nM.

In the case of `COc1ccc(OC)c(NC(=O)C(=O)/C=C(\O)c2cc(OC)ccc2OC)c1`, the EC50 was > 15000 nM (inactive). `Cc1cccc(NC(=O)NNC(=O)c2cc3ccccc3cc2O)c1C`: the EC50 was > 15000 nM (inactive). For `c1ccc(CN2CCc3nc4ccccc4cc3C2)cc1` the value was > 16000 nM (inactive); for `Cc1ccc(C)c(OC(=O)c2cncc(Br)c2)c1`, > 16000 nM (inactive); for `CCc1cc(C(=O)NC2CCCc3c2cnn3-c2cccc(C)c2C)n(C)n1` (stereo not given), 232 nM. The figure for `Cc1ccc(S(=O)(=O)NNC(=O)c2ccc(NC(=O)C3CC3)cc2)cc1` is > 15000 nM (inactive); for `CCn1c(=O)c(C(=O)Nc2ncccc2C)c(O)c2ccccc21` it is 3360 nM. Regarding `Oc1c(C(Nc2cccc(C(F)(F)F)c2)c2cccnc2)ccc2cccnc12` (stereo not given), the EC50 was 2070 nM. Take `S=C(Nc1ccccc1)Nc1nc2ccccc2n1CCOc1ccc(Cl)cc1`: the 50% effective concentration (EC50) is 962 nM. For the compound `O=C(CCCCCN1C(=O)c2cccc3cccc(c23)C1=O)N1CCOCC1`, the EC50 is > 15000 nM (inactive).

As for `C=CCNC(=S)N/N=C/c1ccc(-c2ccc(OC)cc2)o1`, the EC50 was 4000 nM. For `O=C1c2ccccc2NC(c2cnc3ccccc3n2)N1O` (stereo not given), the EC50 is > 16000 nM (inactive).

As for `CS/C(=N\S(=O)(=O)c1cccs1)Nc1ccc(Br)cc1F`, the EC50 is 801 nM. For `NC1=NC[C@H](Cc2ccccc2)N1CCCCC1CCCCC1` the value was 7380 nM. For `O=C1c2ccccc2NC(c2ccc(-c3cccc(Cl)c3)o2)N1O` (stereo not given) the value was 2000 nM; for `CCCNC(=O)c1ccc2c(=O)c(O)c(-c3ccc(Cl)c([N+](=O)[O-])c3)[nH]c2c1`, 1920 nM; for `Cc1cc(Nc2ccc(Cl)cc2)nc(NCc2ccccc2)n1`, 5160 nM.

In the case of `N/C(=N\OC(=O)N1c2ccccc2Sc2ccccc21)c1ccccc1`, the concentration for a half-maximal effect (EC50) is 193 nM.

Regarding `O=C(CCS(=O)(=O)c1ccccc1)Nc1nnc(C(F)(F)F)s1`, the EC50 was > 16000 nM (inactive). The figure for `CCOC(=O)Cc1csc(NC(=O)CSc2nnc(-c3ccc(NS(=O)(=O)CC)cc3)o2)n1` is 150 nM; for `CC12CCC(C(=O)Nc3ncc([N+](=O)[O-])s3)(OC1=O)C2(C)C` (stereo not given) it is > 16000 nM (inactive); for `O=C(/C=C/c1ccc([N+](=O)[O-])o1)NNC(=O)c1ccc(F)cc1` it is 1190 nM. For `COC(=O)c1ccc(COc2ccc(/C=C(\C#N)c3nc4ccccc4[nH]3)cc2OC)o1` the value was 2620 nM; for `CCOc1ccc2nc(N3C(=O)/C(=C/c4ccccc4)NC3=S)sc2c1`, 1410 nM; for `COCCN1C(=O)C(O)=C(C(=O)c2ccco2)C1c1cccc(Oc2ccccc2)c1` (stereo not given), 3840 nM. For `Oc1c(CN2CCOCC2)cc(COCc2ccccc2)c2cccnc12` the value was 963 nM; for `COc1ccc(-n2c(-c3cccc(C)c3[N+](=O)[O-])n[nH]c2=S)cc1`, 316 nM.
